Measured values from US20230085307A1, “PYRIDAZINONE COMPOUND AND HERBICIDE” (NISSAN CHEMICAL CORPORATION, priority 2019, published 2023).

Legend:
late watergrass [1] = test: Test Example 1: herbicidal activity, application before weed generation under submerged conditions (Table 16, symbol A); format: in vivo, late watergrass (Echinochloa oryzicola); conditions: 80 g/ha applied herbicide
Summary of the method: (§1)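 Emulsion formulation, water-diluted to set dose, was put onto the flooded surface (4 cm depth, alluvial soil) the same day weeds were sown and 2.5-leaf rice transplanted. After 3 weeks at 25-30 °C under glass, each species was rated 0 (≤5% kill) to 5 (≥90% kill).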

Japanese bulrush [2] = test: Test Example 1: herbicidal activity, application before weed generation under submerged conditions (Table 16, symbol B); format: in vivo, Japanese bulrush (Schoenoplectus juncoides); conditions: 80 g/ha applied herbicide
Summary of the method: as §1

oval-leafed pondweed [3] = test: Test Example 1: herbicidal activity, application before weed generation under submerged conditions (Table 16, symbol C); format: in vivo, oval-leafed pondweed (Monochoria vaginalis); conditions: 80 g/ha applied herbicide
Summary of the method: as §1

late watergrass [4] = test: Test Example 2: herbicidal activity, application during weed generation under submerged conditions (Table 17, symbol A); format: in vivo, late watergrass (Echinochloa oryzicola); conditions: AAH 80 g/ha; application during weed generation, submerged conditions
Summary of the method: (§2)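 Mixed weed seedlings in alluvial soil under a 4 cm water layer, greenhouse-grown at 25–30° C. Compound given as a diluted emulsion into the floodwater at the 1–2 leaf stage; response graded after three weeks.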

Japanese bulrush [5] = test: Test Example 2: herbicidal activity, application during weed generation under submerged conditions (Table 17, symbol B); format: in vivo, Japanese bulrush (Schoenoplectus juncoides); conditions: AAH 80 g/ha; application during weed generation, submerged conditions
Summary of the method: as §2

oval-leafed pondweed [6] = test: Test Example 2: herbicidal activity, application during weed generation under submerged conditions (Table 17, symbol C); format: in vivo, oval-leafed pondweed (Monochoria vaginalis); conditions: AAH 80 g/ha; application during weed generation, submerged conditions
Summary of the method: as §2

Which results are given for Cc1nn(C)c(=O)c(-c2c(-c3ccccc3)sc3ccc(-c4ccccc4)cc23)c1O [2-166]?
Herbicidal effect on A: late watergrass (grade 0-5) (late watergrass [1]): 2 (Herbicidal rate of 20% or more and less than 40%); Herbicidal effect on B: Japanese bulrush (grade 0-5) (Japanese bulrush [2]): 0 (Herbicidal rate of 5% or less (almost no effect)); Herbicidal effect on C: oval-leafed pondweed (grade 0-5) (oval-leafed pondweed [3]): 0 (Herbicidal rate of 5% or less (almost no effect)); herbicidal effect rating, A: late watergrass (late watergrass [4]): 0 (Herbicidal rate of 5% or less (almost no effect)); herbicidal effect rating, B: Japanese bulrush (Japanese bulrush [5]): 3 (Herbicidal rate of 40% or more and less than 70%); herbicidal effect rating, C: oval-leafed pondweed (oval-leafed pondweed [6]): 0 (Herbicidal rate of 5% or less (almost no effect))
